Here are results for 17 compounds from US11077128B2, “Selective inhibitors of Alpha2-containing isoforms of Na,K-ATPase and use thereof for reduction of intraocular pressure” (Yeda Research and Development Co. Ltd., priority 2015, dated 2021).

Experiment [1] has as its system human Na,K-ATPase α2β3FXYD1. Kind of experiment: biochemical. The format is biochemical.
Experiment [2] concerns the target human Na,K-ATPase α2β1FXYD1 (Homo sapiens, UniProt P50993). Kind of experiment: biochemical. The format is biochemical.
For a further experiment, the system named is IOP in rabbits. Kind of experiment: Lowering of basal IOP in rabbits, topical. The format is in vivo, New Zealand white rabbits. The settings on record: one drop of 1 mM solution, other eye PBS.

On to `CC1CN(Cc2ccccc2)CCC(O[C@@H]2C(C)O[C@@H](OC3C(C)OC(O[C@H]4CC[C@@]5(C)C(CCC6C5CC(O)[C@]5(C)[C@@H](C7=CC(=O)OC7)CC[C@]65O)C4)C[C@@H]3O)C[C@@H]2O)O1` (stereo in doubt) [DBz, 4-((3S,5R,8R,9S,10S,12R,13S,14S,17R)-3-(((2S,4S,5R,6R)-5-(((2S,4S,5S,6R)-5-((4-benzyl-2-methyl-1,4-oxazepan-7-yl)oxy)-4-hydroxy-6-methyltetrahydro-2H-pyran-2-yl)oxy)-4-hydroxy-6-methyltetrahydro-2H-pyran-2-yl)oxy)-12,14-dihydroxy-10,13-dimethylhexadecahydro-1H-cyclopenta[a]phenanthren-17-yl)furan-2(5H)-one], for which the “Selectivity Ki ratio α1β1/α2β3” value in experiment [1] is 10-12. Besides, the “Selectivity Ki ratio α1β1/α2β1” value in experiment [2] came out at 5.7. In the case of `CC1CN(CCS(N)(=O)=O)CCC(O[C@@H]2C(C)O[C@@H](OC3C(C)OC(O[C@H]4CC[C@@]5(C)C(CCC6C5CC(O)[C@]5(C)[C@@H](C7=CC(=O)OC7)CC[C@]65O)C4)C[C@@H]3O)C[C@@H]2O)O1` (stereo in doubt) [DESA, 2-(7-(((2R,3S,4S,6S)-6-(((2R,3R,4S,6S)-6-(((3S,5R,8R,9S,10S,12R,13S,14S,17R)-12,14-dihydroxy-10,13-dimethyl-17-(5-oxo-2,5-dihydrofuran-3-yl)hexadecahydro-1H-cyclopenta[a]phenanthren-3-yl)oxy)-4-hydroxy-2-methyltetrahydro-2H-pyran-3-yl)oxy)-4-hydroxy-2-methyltetrahydro-2H-pyran-3-yl)oxy)-2-methyl-1,4-oxazepan-4-yl)ethanesulfonamide], the “Selectivity Ki ratio α1β1/α2β3” value in experiment [1] worked out at 15. For the same compound, the “Selectivity Ki ratio α1β1/α2β1” value in experiment [2] was 7.7.

Consider `CC1CN(CCS(C)(=O)=O)CCC(O[C@@H]2C(C)O[C@@H](OC3C(C)OC(O[C@H]4CC[C@@]5(C)C(CCC6C5CC(O)[C@]5(C)[C@@H](C7=CC(=O)OC7)CC[C@]65O)C4)C[C@@H]3O)C[C@@H]2O)O1` (stereo in doubt) [DESM, 4-((3S,5R,8R,9S,10S,12R,13S,14S,17R)-12,14-dihydroxy-3-(((2S,4S,5R,6R)-4-hydroxy-5-(((2S,4S,5S,6R)-4-hydroxy-6-methyl-5-((2-methyl-4-(2-(methylsulfonyl)ethyl)-1,4-oxazepan-7-yl)oxy)tetrahydro-2H-pyran-2-yl)oxy)-6-methyltetrahydro-2H-pyran-2-yl)oxy)-10,13-dimethylhexadecahydro-1H-cyclopenta[a]phenanthren-17-yl)furan-2(5H)-one], for which the “Selectivity Ki ratio α1β1/α2β1” value in experiment [2] is 9.4. As to `CC1CN(CCC2CC2)CCC(O[C@@H]2C(C)O[C@@H](OC3C(C)OC(O[C@H]4CC[C@@]5(C)C(CCC6C5CC(O)[C@]5(C)[C@@H](C7=CC(=O)OC7)CC[C@]65O)C4)C[C@@H]3O)C[C@@H]2O)O1` (stereo in doubt) [DEcP, 4-((3S,5R,8R,9S,10S,12R,13S,14S,17R)-3-(((2S,4S,5R,6R)-5-(((2S,4S,5S,6R)-5-((4-(2-cyclopropylethyl)-2-methyl-1,4-oxazepan-7-yl)oxy)-4-hydroxy-6-methyltetrahydro-2H-pyran-2-yl)oxy)-4-hydroxy-6-methyltetrahydro-2H-pyran-2-yl)oxy)-12,14-dihydroxy-10,13-dimethylhexadecahydro-1H-cyclopenta[a]phenanthren-17-yl)furan-2(5H)-one], the “Selectivity Ki ratio α1β1/α2β3” value in experiment [1] is 10-12. The same measure, in the same setting: in the case of `CC1CN(CC2CC(C)(C)C2)CCC(O[C@@H]2C(C)O[C@@H](OC3C(C)OC(O[C@H]4CC[C@@]5(C)C(CCC6C5CC(O)[C@]5(C)[C@@H](C7=CC(=O)OC7)CC[C@]65O)C4)C[C@@H]3O)C[C@@H]2O)O1` (stereo in doubt) [DMDMcB, 4-((3S,5R,8R,9S,10S,12R,13S,14S,17R)-3-(((2S,4S,5R,6R)-5-(((2S,4S,5 S,6R)-5-((4-((3,3-dimethylcyclobutyl)methyl)-2-methyl-1,4-oxazepan-7-yl)oxy)-4-hydroxy-6-methyltetrahydro-2H-pyran-2-yl)oxy)-4-hydroxy-6-methyltetrahydro-2H-pyran-2-yl)oxy)-12,14-dihydroxy-10,13-dimethylhexadecahydro-1H-cyclopenta[a]phenanthren-17-yl)furan-2(5H)-one] it was 10-12. With `CC1CN(CS(C)(=O)=O)CCC(O[C@@H]2C(C)O[C@@H](OC3C(C)OC(O[C@H]4CC[C@@]5(C)C(CCC6C5CC(O)[C@]5(C)[C@@H](C7=CC(=O)OC7)CC[C@]65O)C4)C[C@@H]3O)C[C@@H]2O)O1` (stereo in doubt) [DMSM, 4-((3S,5R,8R,9S,10S,12R,13S,14S,17R)-12,14-dihydroxy-3-(((2S,4S,5R,6R)-4-hydroxy-5-(((2S,4S,5S,6R)-4-hydroxy-6-methyl-5-((2-methyl-4-((methylsulfonyl)methyl)-1,4-oxazepan-7-yl)oxy)tetrahydro-2H-pyran-2-yl)oxy)-6-methyltetrahydro-2H-pyran-2-yl)oxy)-10,13-dimethylhexadecahydro-1H-cyclopenta[a]phenanthren-17-yl)furan-2(5H)-one], the “Selectivity Ki ratio α1β1/α2β1” value in experiment [2] is 6.9.

As for `CC1CN(C2CCCCC2)CCC(O[C@@H]2C(C)O[C@@H](OC3C(C)OC(O[C@H]4CC[C@@]5(C)C(CCC6C5CC(O)[C@]5(C)[C@@H](C7=CC(=O)OC7)CC[C@]65O)C4)C[C@@H]3O)C[C@@H]2O)O1` (stereo in doubt) [DcH, 4-((3S,5R,8R,9S,10S,12R,13S,14S,17R)-3-(((2S,4S,5R,6R)-5-(((2S,4S,5S,6R)-5-((4-cyclohexyl-2-methyl-1,4-oxazepan-7-yl)oxy)-4-hydroxy-6-methyltetrahydro-2H-pyran-2-yl)oxy)-4-hydroxy-6-methyltetrahydro-2H-pyran-2-yl)oxy)-12,14-dihydroxy-10,13-dimethylhexadecahydro-1H-cyclopenta[a]phenanthren-17-yl)furan-2(5H)-one], the “Selectivity Ki ratio α1β1/α2β3” value in experiment [1] was 10-12.

As to `CC1CN(C2CC2)CCC(O[C@@H]2C(C)O[C@@H](O[C@@H]3C(C)O[C@@H](O[C@H]4CC[C@@]5(C)C(CCC6C5CC(O)[C@]5(C)[C@@H](C7=CC(=O)OC7)CC[C@]65O)C4)C[C@@H]3O)C[C@@H]2O)O1` (stereo in doubt) [DcP, 4-((3S,5R,8R,9S,10S,12R,13S,14S,17R)-3-(((2R,4S,5S,6R)-5-(((2S,4S,5S,6R)-5-((4-cyclopropyl-2-methyl-1,4-oxazepan-7-yl)oxy)-4-hydroxy-6-methyltetrahydro-2H-pyran-2-yl)oxy)-4-hydroxy-6-methyltetrahydro-2H-pyran-2-yl)oxy)-12,14-dihydroxy-10,13-dimethylhexadecahydro-1H-cyclopenta[a]phenanthren-17-yl)furan-2(5H)-one], the “Selectivity Ki ratio α1β1/α2β1” value in experiment [2] is on record as 7.5.

Turning to `CC1CN(C2CCCC2)CCC(O[C@@H]2C(C)O[C@@H](OC3C(C)OC(O[C@H]4CC[C@@]5(C)C(CCC6C5CC(O)[C@]5(C)[C@@H](C7=CC(=O)OC7)CC[C@]65O)C4)C[C@@H]3O)C[C@@H]2O)O1` (stereo in doubt) [DcPe, 4-((3S,5R,8R,9S,10S,12R,13S,14S,17R)-3-(((2S,4S,5R,6R)-5-(((2S,4S,5S,6R)-5-((4-cyclopentyl-2-methyl-1,4-oxazepan-7-yl)oxy)-4-hydroxy-6-methyltetrahydro-2H-pyran-2-yl)oxy)-4-hydroxy-6-methyltetrahydro-2H-pyran-2-yl)oxy)-12,14-dihydroxy-10,13-dimethylhexadecahydro-1H-cyclopenta[a]phenanthren-17-yl)furan-2(5H)-one], the “Selectivity Ki ratio α1β1/α2β3” value in experiment [1] turned out to be 5. Regarding `CC1CN(CC(F)(F)F)CCC(O[C@@H]2[C@H](C)O[C@@H](O[C@@H]3[C@H](C)O[C@@H](O[C@H]4CC[C@@]5(C)C(CCC6C5C[C@H](O)[C@]5(C)[C@@H](C7=CC(=O)OC7)CC[C@]65O)C4)C[C@@H]3O)C[C@@H]2O)O1` (stereo partly drawn) [DCF3], in experiment [1], the “Selectivity Ki ratio α1β1/α2β3” value came to 9.6. Moreover, the “Selectivity Ki ratio α1β1/α2β1” value in experiment [2] was found to be 4.1.

For the compound `CCN1CCC(O[C@@H]2[C@H](C)O[C@@H](O[C@@H]3[C@H](C)O[C@@H](O[C@H]4CC[C@@]5(C)C(CCC6C5C[C@H](O)[C@]5(C)[C@@H](C7=CC(=O)OC7)CC[C@]65O)C4)C[C@@H]3O)C[C@@H]2O)OC(C)C1` (stereo partly drawn) [DEt], the “Selectivity Ki ratio α1β1/α2β3” value in experiment [1] is on record as 9.5. Further, the “Selectivity Ki ratio α1β1/α2β1” value in experiment [2] is 5.9. Regarding `CC1CN(CC(N)=O)CCC(OC2C(O)CC(OC3C(O)CC(OC4CCC5(C)C(CCC6C5CC(O)C5(C)C(C7=CC(=O)OC7)CCC65O)C4)OC3C)OC2C)O1` (stereo not drawn) [DGlyN, reference compound], the “effect on lowering the basal IOP” value with IOP in rabbits is “coincides with other observations”.

Consider `CCCN1CCC(O[C@@H]2[C@H](C)O[C@@H](O[C@@H]3[C@H](C)O[C@@H](O[C@H]4CC[C@@]5(C)C(CCC6C5C[C@H](O)[C@]5(C)[C@@H](C7=CC(=O)OC7)CC[C@]65O)C4)C[C@@H]3O)C[C@@H]2O)OC(C)C1` (stereo partly drawn) [DP], for which the “Selectivity Ki ratio α1β1/α2β3” value in experiment [1] amounted to 8.8. Further, the “Selectivity Ki ratio α1β1/α2β1” value in experiment [2] is reported as 4.8. Take `CC1CN(C[Si](C)(C)C)CCC(OC2C(O)CC(OC3C(O)CC(OC4CCC5(C)C(CCC6C5CC(O)C5(C)C(C7=CC(=O)OC7)CCC65O)C4)OC3C)OC2C)O1` (stereo not drawn) [DTMS]: the “Selectivity Ki ratio α1β1/α2β3” value in experiment [1] is 6.5. Further, the “Selectivity Ki ratio α1β1/α2β1” value in experiment [2] is given as 3.

For the compound `CC1CN(C(C)C)CCC(O[C@@H]2[C@H](C)O[C@@H](O[C@@H]3[C@H](C)O[C@@H](O[C@H]4CC[C@@]5(C)C(CCC6C5C[C@H](O)[C@]5(C)[C@@H](C7=CC(=O)OC7)CC[C@]65O)C4)C[C@@H]3O)C[C@@H]2O)O1` (stereo partly drawn) [DiP], in experiment [2], the “Selectivity Ki ratio α1β1/α2β1” value is listed as 5.1. With `C[C@H]1O[C@@H](O[C@H]2[C@@H](O)C[C@H](O[C@H]3[C@@H](O)C[C@H](O[C@H]4CC[C@@]5(C)[C@H](CC[C@@H]6[C@@H]5C[C@@H](O)[C@]5(C)[C@@H](C7=CC(=O)OC7)CC[C@]65O)C4)O[C@@H]3C)O[C@@H]2C)C[C@H](O)[C@@H]1O` [Digoxin, digoxin, reference compound], in the experiment with IOP in rabbits, the “effect on lowering the basal IOP” value was “neither digoxin nor DiB had a significant effect”. Consider `CC1CN(C(C)(C)C)CCC(O[C@@H]2[C@H](C)O[C@@H](O[C@@H]3[C@H](C)O[C@@H](O[C@H]4CC[C@@]5(C)C(CCC6C5C[C@H](O)[C@]5(C)[C@@H](C7=CC(=O)OC7)CC[C@]65O)C4)C[C@@H]3O)C[C@@H]2O)O1` (stereo partly drawn) [DtB], for which, in experiment [1], the “Selectivity Ki ratio α1β1/α2β3” value was 8.2. Also, the “Selectivity Ki ratio α1β1/α2β1” value in experiment [2] was 6.2.
